# Patent US20090137661A1, “PLANT DERIVED COMPOUNDS AND COMPOUND FORMULAE CONTAINING THE SAME FOR THE TREATMENT OF CERVICAL CANCER” (priority 2007, published 2009)
# Where two headings read alike, the source gives them in different places.
# Experiments:
# HeLa cells [1] = test: MTT assay within the anti-infection screening platform; type: cell-based, human; conditions: 48 hours, concentrations inhibiting HPV 16 pseudovirus
# Text: (§1) Carrageenan was used as positive control. […] The cell survival rate and IC50 of each sample were obtained in accordance with the method stated above.
# HPV 16 pseudovirus = test: Screening for anti-infection compounds (GFP-expressing HPV 16 pseudovirus infecting HeLa cells); type: cell-based, human papilloma virus 16; conditions: Pseudovirus, HeLa, 48 h, read-out: IC50 for inhibiting HPV 16 pseudoviruses
# Protocol: […] were co-transfected with codon-modified papillomavirus capsid genes, L1 and L2, plasmid: p16shell, and a GFP reporter plasmid, pClneo-GFP, to monitor the infectivity of the stock.
# The GFP-expressing HPV 16 pseudoviruses were prepared and harvested in accordance with the protocol provided by the National Cancer Institute (USA). Said protocol is available on line at http://home.ccr.cancer.gov/lco/production.asp which is incorporated herein by reference in its entirety.
# In the present application, the GFP-expressing HPV 16 pseudoviruses used have titers of about 4*10^8 infectious units per ml.
# HeLa cells were seeded in 96-well plates at a density of 6×10^3 cells per well. 24 hours later, 2×HPV 16 pseudoviruses of various volumes were added. The signal to background ratio of each volume of the HPV 16 pseudoviruses was illustrated in FIG. 2.
# When choosing screening platform, the infection rate should be around 20%. […] Under this dosage, the signal to background ratio is 2.0-2.5.
# as §1
# HeLa cells [2] = test: Cytotoxicity assay (MTT assay) on HeLa cells; conditions: for IC50: Homo sapiens, HeLa
# Protocol: HeLa cell line was obtained from Dr. S. S. Shen (Biomedical Engineering Research Laboratories of Industrial Technology Research Institute of Taiwan). HeLa cells are adherent cells and were propagated and maintained in Dulbecco's modified Eagle's medium (DMEM) supplemented with 10% fetal bovine serum (FBS), […] sodium bicarbonate (NaHCO3), 1 mM sodium pyruvate, and 0.1 mM non-essential amino acid.
# (§2) Cytotoxicity Assay (MTT Assay)
# The cytotoxicity of the compounds set forth herein to HeLa cells and HUVEC cells were determined by the MTT assay. The HUVEC cells were used to understand the cytotoxicity of said compounds to normal human cells. Besides, doxorubicin HCl was used as a comparative example so as to investigate the efficacy of the compounds according to the embodiments of the present invention.
# Briefly, the MTT assay comprises the following steps: • (A) Cells were seeded in 96-well plates 3 hours before treatment, wherein the density of HeLa cell is 1×10^4 cells per well and the density of HUVEC cell is 2×10^4 cells per well; • (B) Cells were then treated with various concentrations of tested samples and incubated for a predetermined period (24, 48, and 72 hours); • (C) After the predetermined periods expired, the tested samples were removed and 100 μl MTT reagent (1 mg/ml) was added to each well; • (D) The plates were incubated at 37° C. with 5% of CO2 for 5 hours; • (E) The MTT reagent was removed and 100 μl DMSO was added to each well; • (F) The optical density (O.D.) of each well was determined by ELISA reader at a wavelength of 560 nm.
# Each experiment was repeated for 3 times and the result shown in the tables herein were the mean value of the 3 repetitions. The O.D. of the vehicle control and experimental groups were recorded. The cell survival rate of each sample was calculated as follows:
# Cell survival rate(%)=O.D.control/O.D.experimental*100%
# Then, the cell survival rate was plotted against the compound concentration and the IC50 value of each compound was calculated by the GraFit data analysis software (Erithacus Software Ltd.).
# HUVEC cells = test: Cytotoxicity assay (MTT assay) on HUVEC cells; type: cell-based, human; conditions: for IC50: Homo sapiens, HUVEC cells
# Text: Human umbilical vein endothelial cells (HUVEC) were purchased from Food Industry Research and Development Institute in Hsin-Chu City, Taiwan. HUVEC cells were propagated and maintained in Medium 199 supplemented with 10% FBS, Heparin, and […].
# as §2
# [3] = 24 h, read-out: IC50 at 24 hours, HeLa
# [4] = 48 h, read-out: IC50 at 48 hours, HeLa
# [5] = 72 h, read-out: IC50 at 72 hours, HeLa
compound,measurement,setting,value
"O=c1cc(-c2ccccc2)oc2cc(O)c(O)c(O)c12 [Compound C, baicalein]",survival rates of HeLa cells in anti-infection screening,HeLa cells [1],higher than 80%
same,IC50,HPV 16 pseudovirus,8.2 µg/mL
"O=C(O)c1cc(O)c(O)c(O)c1 [Compound D, gallic acid]",HeLa Cell Survival Rate,"HeLa cells [2]; 0.125 μg/ml, 24 hrs",85%
same,HeLa Cell Survival Rate,"HeLa cells [2]; 0.125 μg/ml, 48 hrs",96%
same,HeLa Cell Survival Rate,"HeLa cells [2]; 0.125 μg/ml, 72 hrs",101%
same,HeLa Cell Survival Rate,"HeLa cells [2]; 1.25 μg/ml, 24 hrs",84%
same,HeLa Cell Survival Rate,"HeLa cells [2]; 1.25 μg/ml, 48 hrs",91%
same,HeLa Cell Survival Rate,"HeLa cells [2]; 1.25 μg/ml, 72 hrs",103%
same,HeLa Cell Survival Rate,"HeLa cells [2]; 12.5 μg/ml, 24 hrs",90%
same,HeLa Cell Survival Rate,"HeLa cells [2]; 12.5 μg/ml, 48 hrs",82%
same,HeLa Cell Survival Rate,"HeLa cells [2]; 12.5 μg/ml, 72 hrs",99%
same,HeLa Cell Survival Rate,"HeLa cells [2]; 125 μg/ml, 24 hrs",17%
same,HeLa Cell Survival Rate,"HeLa cells [2]; 125 μg/ml, 48 hrs",11%
same,HeLa Cell Survival Rate,"HeLa cells [2]; 125 μg/ml, 72 hrs",8%
same,IC50,HeLa cells [2]; [3],37 µg/mL
same,IC50,HeLa cells [2]; [4],26 µg/mL
same,IC50,HeLa cells [2]; [5],45 µg/mL
same,cytotoxicity to HeLa cells compared with Doxorubicin HCl,HeLa cells [2]; under the corresponding conditions,higher cytotoxicity
same,survival rates of HeLa cells in anti-infection screening,HeLa cells [1],higher than 80%
same,IC50,HPV 16 pseudovirus,8.9 µg/mL
"O=C(O)[C@H]1O[C@@H](Oc2cc3oc(-c4ccccc4)cc(=O)c3c(O)c2O)[C@H](O)[C@@H](O)[C@@H]1O [Compound G, baicalin]",HeLa Cell Survival Rate,"HeLa cells [2]; 0.1 μg/ml, 24 hrs",104%
same,HeLa Cell Survival Rate,"HeLa cells [2]; 0.1 μg/ml, 48 hrs",94%
same,HeLa Cell Survival Rate,"HeLa cells [2]; 0.1 μg/ml, 72 hrs",97%
same,HeLa Cell Survival Rate,"HeLa cells [2]; 1 μg/ml, 24 hrs",103%
same,HeLa Cell Survival Rate,"HeLa cells [2]; 1 μg/ml, 48 hrs",96%
same,HeLa Cell Survival Rate,"HeLa cells [2]; 1 μg/ml, 72 hrs",97%
same,HeLa Cell Survival Rate,"HeLa cells [2]; 10 μg/ml, 24 hrs",109%
same,HeLa Cell Survival Rate,"HeLa cells [2]; 10 μg/ml, 48 hrs",98%
same,HeLa Cell Survival Rate,"HeLa cells [2]; 10 μg/ml, 72 hrs",97%
same,HeLa Cell Survival Rate,"HeLa cells [2]; 100 μg/ml, 24 hrs",68%
same,HeLa Cell Survival Rate,"HeLa cells [2]; 100 μg/ml, 48 hrs",50%
same,HeLa Cell Survival Rate,"HeLa cells [2]; 100 μg/ml, 72 hrs",37%
same,HUVEC/HeLa ratio of IC50,HeLa cells [2]; 72 hours,2.4
same,IC50,HeLa cells [2]; [3],> 125 µg/mL
same,IC50,HeLa cells [2]; [4],> 125 µg/mL
same,IC50,HeLa cells [2]; [5],92 µg/mL
same,HUVEC Cell Survival Rate,"HUVEC cells; 1.25 μg/ml, 24 hrs",98%
same,HUVEC Cell Survival Rate,"HUVEC cells; 1.25 μg/ml, 48 hrs",96%
same,HUVEC Cell Survival Rate,"HUVEC cells; 1.25 μg/ml, 72 hrs",88%
same,HUVEC Cell Survival Rate,"HUVEC cells; 12.5 μg/ml, 24 hrs",97%
same,HUVEC Cell Survival Rate,"HUVEC cells; 12.5 μg/ml, 48 hrs",101%
same,HUVEC Cell Survival Rate,"HUVEC cells; 12.5 μg/ml, 72 hrs",75%
same,HUVEC Cell Survival Rate,"HUVEC cells; 125 μg/ml, 24 hrs",81%
same,HUVEC Cell Survival Rate,"HUVEC cells; 125 μg/ml, 48 hrs",76%
same,HUVEC Cell Survival Rate,"HUVEC cells; 125 μg/ml, 72 hrs",56%
same,IC50,"HUVEC cells; 24 hours, read-out: IC50 at 24 hours, HUVEC",> 125 µg/mL
same,IC50,"HUVEC cells; 48 hours, read-out: IC50 at 48 hours, HUVEC",> 125 µg/mL
same,IC50,"HUVEC cells; 72 hours, read-out: IC50 at 72 hours, HUVEC",218 µg/mL
